Experimental data from US8952024B2, “Herbicidal pyrimidone derivatives” (E I du Pont de Nemours and Company, priority 2009, dated 2015).

How the values were obtained:
Assay in all cases: Test D pre-/postemergence plant response
Format in all cases: in vivo
[1] = test system: Russian thistle (Salsola kali)
Method in brief: (§1)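 Greenhouse assay: sown seeds in loam/sand received preemergence spray; simultaneously, emerged seedlings (1- to 4-leaf, 2–18 cm) got postemergence spray of the same surfactant-containing formulation. Rating at 14–21 days by visual comparison with controls, 0 = no effect to 100 = complete control.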

[2] = test system: Surinam grass (Brachiaria decumbens)
Method in brief: as §1

[3] = test system: barnyardgrass (Echinochloa crus-galli)
Method in brief: as §1

[4] = test system: bluegrass (annual bluegrass, Poa annua)
Method in brief: as §1

[5] = test system: dallisgrass (Paspalum dilatatum)
Method in brief: as §1

[6] = test system: green foxtail (Setaria viridis)
Method in brief: as §1

[7] = test system: guineagrass (Panicum maximum)
Method in brief: as §1

kochia (Kochia scoparia) = test system: kochia (Kochia scoparia)
Method in brief: as §1

[8] = test system: large crabgrass (Digitaria sanguinalis)
Method in brief: as §1

[9] = test system: mallow (common mallow, Malva sylvestris)
Method in brief: as §1

[10] = test system: morningglory (pitted morningglory, Ipomoea lacunosa)
Method in brief: as §1

[11] = test system: naked crabgrass (Digitaria nuda)
Method in brief: as §1

[12] = test system: quackgrass (Elytrigia repens)
Method in brief: as §1

[13] = test system: ragweed (common ragweed, Ambrosia elatior)
Method in brief: as §1

[14] = test system: sandbur (southern sandbur, Cenchrus echinatus)
Method in brief: as §1

[15] = test system: signalgrass (broadleaf signalgrass, Brachiaria platyphylla)
Method in brief: as §1

[16] = Postemergence, 125 g ai/ha, scale 0 to 100 (0 no effect, 100 complete control)
[17] = Preemergence, 16 g ai/ha, scale 0 to 100, 0 no effect, 100 complete control
[18] = Preemergence, 31 g ai/ha, scale 0 to 100 (0 no effect, 100 complete control)
[19] = Preemergence, 125 g ai/ha, scale 0 to 100
[20] = Postemergence, 16 g ai/ha, scale 0 to 100
[21] = Postemergence, 31 g ai/ha, scale 0 to 100
[22] = Postemergence, 62 g ai/ha, scale 0 to 100 (0 no effect, 100 complete control)
[23] = Postemergence, 31 g ai/ha, scale 0 to 100 (0 no effect, 100 complete control)
[24] = Preemergence, 62 g ai/ha, scale 0 to 100

O=C1CCCC(O)=C1C(=O)c1cnc(C2CC2)n(-c2ccccc2)c1=O [Compound 87]
80: Plant response rating, Dallisgrass [5, 24] | Plant response rating, Mallow [9, 24] | Plant response rating, Morningglory [10, 24] | Plant response rating, Crabgrass, Naked [11, 18] | Plant response rating, Ragweed [13, 21]
30: Plant response rating, Surinam Grass [2, 20] | Plant response rating, Foxtail, Green [6, 21] | Plant response rating, Guineagrass [7, 16] | Plant response rating, Ragweed [13, 17] | Plant response rating, Signalgrass [15, 21]
10: Plant response rating, Foxtail, Green [6, 19] | Plant response rating, Guineagrass [7, 20] | Plant response rating, Morningglory [10, 17]
5: Plant response rating, Barnyardgrass [3, 18] | Plant response rating, Foxtail, Green [6, 20] | Plant response rating, Quackgrass [12, 16] | Plant response rating, Sandbur [14, 20] | Plant response rating, Sandbur [14, 21]
98: Plant response rating, Dallisgrass [5, 19] | Plant response rating, Kochia (kochia (Kochia scoparia); [18]) | Plant response rating, Ragweed [13, 16] | Plant response rating, Ragweed [13, 18] | Plant response rating, Ragweed [13, 19]
75: Plant response rating, Russian Thistle [1, 18] | Plant response rating, Dallisgrass [5, 16] | Plant response rating, Guineagrass [7, 19] | Plant response rating, Crabgrass, Large [8, 16] | Plant response rating, Crabgrass, Large [8, 18] | Plant response rating, Crabgrass, Naked [11, 16] | Plant response rating, Signalgrass [15, 19]
40: Plant response rating, Surinam Grass [2, 21] | Plant response rating, Surinam Grass [2, 16] | Plant response rating, Surinam Grass [2, 22] | Plant response rating, Crabgrass, Large [8, 20] | Plant response rating, Mallow [9, 20] | Plant response rating, Morningglory [10, 20] | Plant response rating, Morningglory [10, 21] | Plant response rating, Morningglory [10, 22]
50: Plant response rating, Russian Thistle [1, 17] | Plant response rating, Surinam Grass [2, 18] | Plant response rating, Barnyardgrass [3, 23] | Plant response rating, Barnyardgrass [3, 24] | Plant response rating, Dallisgrass [5, 22] | Plant response rating, Dallisgrass [5, 17] | Plant response rating, Dallisgrass [5, 18] | Plant response rating, Guineagrass [7, 24] | Plant response rating, Crabgrass, Large [8, 17] | Plant response rating, Morningglory [10, 16] | Plant response rating, Crabgrass, Naked [11, 20]
25: Plant response rating, Bluegrass [4, 24] | Plant response rating, Dallisgrass [5, 20] | Plant response rating, Dallisgrass [5, 21] | Plant response rating, Kochia (kochia (Kochia scoparia); [20]) | Plant response rating, Sandbur [14, 18]
65: Plant response rating, Kochia (kochia (Kochia scoparia); [17]) | Plant response rating, Crabgrass, Large [8, 21]
70: Plant response rating, Barnyardgrass [3, 16] | Plant response rating, Crabgrass, Large [8, 22] | Plant response rating, Mallow [9, 16] | Plant response rating, Mallow [9, 22] | Plant response rating, Crabgrass, Naked [11, 22] | Plant response rating, Ragweed [13, 20]
100: Plant response rating, Russian Thistle [1, 19] | Plant response rating, Surinam Grass [2, 19] | Plant response rating, Kochia (kochia (Kochia scoparia); [24]) | Plant response rating, Kochia (kochia (Kochia scoparia); [19]) | Plant response rating, Crabgrass, Large [8, 19] | Plant response rating, Mallow [9, 19] | Plant response rating, Crabgrass, Naked [11, 24] | Plant response rating, Crabgrass, Naked [11, 19]
95: Plant response rating, Barnyardgrass [3, 19] | Plant response rating, Crabgrass, Large [8, 24] | Plant response rating, Morningglory [10, 19] | Plant response rating, Ragweed [13, 22] | Plant response rating, Sandbur [14, 19]
20: Plant response rating, Bluegrass [4, 17] | Plant response rating, Bluegrass [4, 18] | Plant response rating, Guineagrass [7, 21] | Plant response rating, Guineagrass [7, 22] | Plant response rating, Sandbur [14, 22] | Plant response rating, Signalgrass [15, 20]
35: Plant response rating, Russian Thistle [1, 16] | Plant response rating, Barnyardgrass [3, 20] | Plant response rating, Bluegrass [4, 19] | Plant response rating, Foxtail, Green [6, 22] | Plant response rating, Kochia (kochia (Kochia scoparia); [21]) | Plant response rating, Kochia (kochia (Kochia scoparia); [22]) | Plant response rating, Sandbur [14, 16]
60: Plant response rating, Barnyardgrass [3, 22] | Plant response rating, Foxtail, Green [6, 16] | Plant response rating, Kochia (kochia (Kochia scoparia); [16]) | Plant response rating, Mallow [9, 21] | Plant response rating, Crabgrass, Naked [11, 21] | Plant response rating, Signalgrass [15, 16] | Plant response rating, Signalgrass [15, 22]
0: Plant response rating, Surinam Grass [2, 17] | Plant response rating, Barnyardgrass [3, 17] | Plant response rating, Bluegrass [4, 20] | Plant response rating, Bluegrass [4, 23] | Plant response rating, Bluegrass [4, 16] | Plant response rating, Bluegrass [4, 22] | Plant response rating, Foxtail, Green [6, 17] | Plant response rating, Foxtail, Green [6, 18] | Plant response rating, Foxtail, Green [6, 24] | Plant response rating, Guineagrass [7, 17] | Plant response rating, Guineagrass [7, 18] | Plant response rating, Quackgrass [12, 20] | Plant response rating, Quackgrass [12, 21] | Plant response rating, Quackgrass [12, 22] | Plant response rating, Quackgrass [12, 17] | Plant response rating, Quackgrass [12, 18] | Plant response rating, Quackgrass [12, 19] | Plant response rating, Sandbur [14, 17] | Plant response rating, Signalgrass [15, 17] | Plant response rating, Signalgrass [15, 18]
